# Test results: US11612586B2, “Indole regulation of antigen presenting cells” (THE TEXAS A&M UNIVERSITY SYSTEM, priority 2016, dated 2023)
# What was measured:
# TNF = TNF production in DC2.4 cell line, intracellular staining, flow cytometry; assay type: cell-based, murine
# Procedure: Intracellular staining was performed to assess TNF production.
# FIG. 8 illustrates that indole synergizes with TGF-β to inhibit TNF production in DCs. Flow cytometric analysis was performed on DC2.4 cells treated with indole or DMF control for 24 hours in the presence or absence of TGF-β (10 ng/ml). […] Shaded gray areas represent unstimulated samples. Representative histograms from one of three independent experiments.
# One important way that DCs shape local immune responses is through the production of cytokines. Cytokine production was addressed in indole-conditioned dendritic cells, first using the murine dendritic cell line, DC2.4. Cells pre-treated with physiologically relevant doses of indole produced less TNF upon stimulation with the bacterial surface component and TLR4 ligand, LPS. Production of TNF was reduced by 50% following treatment with 1 mM indole (FIG. 1). This response is biologically important as LPS serves as the prototypical endotoxin, present on the surface of virtually all gram-negative bacteria including gut-resident commensal strains.
# naïve CD4+CD25− T cells = experiment: DC-T cell co-culture without cell contact (Transwell): Treg induction; assay type: cell-based, mouse; conditions: exogenous TGF-β added, 3 days
# Procedure: Transwell tissue culture plates were used to perform co-cultures with a physical barrier between the two cell types. Naïve CD4+CD25− T cells were FACS-sorted and placed in the bottom of a 24-well Transwell cell culture plate with 0.4 uM polycarbonate membranes that had been coated with α-CD3 (5 ug/ml) and α-CD28 (2 ug/ml). TGF-β was added at the indicated concentrations. […] The T cell to DC ratio was 2:1, as in other co-culture experiments. After 3 days, T cells were stained for Foxp3 and analyzed by flow cytometry.
# Naïve CD4+CD25− T cells were FACS-sorted and placed in the bottom of a 24-well Transwell cell culture plate with 0.4 uM polycarbonate membranes (Corning) that had been coated with 5 μg/mL αCD3 (BioXcell 145-2C11) and 2 μg/mL αCD28 (BioXcell 37.51). TGF-β was added at the indicated concentrations. The insert was placed in the well and washed, Day 3-treated BMDCs were added to the top chamber such that culture media was shared, but the cell types were kept physically separate. The T cell to DC ratio was 2:1, as in other co-culture experiments.
# Akt = experiment: phospho-Akt in BMDCs, flow cytometry; assay type: cell-based, mouse
# Procedure: Flow cytometric analysis was performed on BMDCs conditioned with indole from day 3 of culture and subsequently stimulated with LPS (5 ug/ml) for the given times. Cells were stained for phospho-Akt and analyzed by flow cytometry.
# Flow cytometric analysis was performed on BMDCs from WT or AhrKO mice cultured in the presence of indole (1 mM) from day 3. DCs were stimulated with LPS (5 ug/ml) for the given times and stained for phospho-Akt, which was detected by flow cytometry. Percentage of pAkt-positive DCs indicated. Representative data is from one of three independent experiments.
# Another central mediator of cellular signaling is the serine/threonine kinase, Akt (also referred to as protein kinase B), which regulates cellular processes including metabolism, growth, proliferation, and survival. The Akt pathway is activated by numerous receptor tyrosine kinases, cytokine receptors, G-protein-coupled receptors, and other molecules which activate the lipid kinase PI3K and result in production of phosphatidylinositol (3,4,5)-trisphosphate (PIPS). This second messenger acts as a docking site at the plasma membrane for Akt where phosphorylation and activation occurs. Akt is located upstream of NF-kB and can induce NF-kB signaling via phosphorylation of IKKα and Tp12. The effect of indole on Akt phosphorylation was assessed to determine whether indole's inhibition of NF-kB might be a secondary effect due to modulation of an upstream target.
# The inventors performed a series of assays where bone marrow derived macrophages (BMDMs), bone marrow derived dendritic cells (BMDCs), and splenic dendritic cells (splenic DCs), were exposed to a series of TDMMs, including indole, indole-3-acetate (I3AT), 5-hydroxyindole (5HI), and indole-3-pyruvate (I3P), as well as indole-3-carbinol (I3C; a plant derived compound) to be used for a positive control (1 mM for 24 hours). The BMDMs and BMDCs were stimulated with LPS for 4 hours and assayed at day 7 for expression of various pro-inflammatory cytokines. In a similar assay, the BMDMs and BMDCs were stimulated with LPS or CpG, respectively, for 15 minutes and assayed for pAKT and pERK signaling, which is a reflection of pro-inflammatory response.
# Thy1.2+CD4+ T cells = experiment: In vivo T cell activation by conditioned, OVA-loaded BMDCs transferred to B6-Thy1.1 mice; parameters: species or system mouse; conditions: mice receiving BMDCs conditioned with indole
# Excerpt: FIGS. 17A-17C graphically illustrate that indole-conditioned DCs induce lower T cell activation overall but a greater proportion of Tregs in spleen compared to control. Naïve CD4+CD25− T cells from OT-II (Thy1.2) mice and OVA323-339-loaded BMDCs conditioned with indole, RA, or DMF were transferred to B6-Thy1.1 mice. After 7 days, tissues were harvested and stained for flow cytometric analysis. Data includes total expansion of Thy1.2+CD4+ T cells (FIG. 17A), percentage of Foxp3+CD4+ T cells of expanded T cells (FIG. 17B), and MFI of Foxp3+CD4+ T cells of expanded T cells (FIG. 17C). n=4 mice/group.
# To address the functionality of indole DC-induced Tregs, an in vivo T cell activation system was employed. The pan T cell surface antigen, Thy1, has congenic alleles, Thy1.1 and Thy1.2, which can be used to differentiate donor and recipient T cells. Naïve CD4+CD25− T cells were purified from OT-II (Thy1.2) mice, then transferred them to recipient Thy1.1 mice. Indole-treated, OVA323-339 peptide-loaded BMDCs (Thy1.2) was subsequently transferred to the same recipient Thy1.1 mice. After five days, the recipient mice were sacrificed to assess activation of the transferred naïve T cells, which could only be activated by the transferred, peptide-loaded DCs and are identifiable by the Thy1.2 T cell surface antigen. Cellular populations from the spleen, mesenteric lymph nodes, and pooled distal lymph nodes (axial and inguinal), were examined limiting the analysis to CD4+ T cells bearing the Thy1.2 allele (donor-derived). Importantly, the DCs transferred without OVA peptide loading (negative control) induced virtually undetectable T cell activation. This confirms the specificity of the present model, ensuring that T cell activation in Thy1.2 T cells was solely due to interaction with our experimental BMDCs.
# Naïve CD4+CD25− T cells from spleens and lymph nodes of OT-II mice were isolated by column purification as described above and resuspended in sterile Hanks Balanced Saline Solution (HBSS). […]
compound,measurement,setting,value
"c1ccc2[nH]ccc2c1 [Indole, indole]",reduction of TNF production,"TNF; DC2.4, 1 mM indole pre-treatment, LPS stimulation",50%
same,inhibition of TNF production with concurrent TGF-β treatment,"TNF; DC2.4, indole 24 hours with TGF-β (10 ng/ml), LPS 1 ug/ml 4 hours",marked synergistic effect
same,Treg induction by conditioned DCs without cell contact over solvent controls,naïve CD4+CD25− T cells,did not enhance Treg skew
same,pAKT,"Akt; BMDCs, 1 mM TDMM 24 hours, CpG (5 uM) 15 minutes",↓↓
same,reduction of phospho-Akt,"Akt; BMDCs, 1 mM indole, 30 minutes post-LPS stimulation",over 50%
same,phospho-Akt in the absence of external stimulation,"Akt; BMDCs, indole versus controls, unstimulated",No difference
same,"inhibition of Akt phospho-signaling, WT versus AhR−/−",Akt; indole-DCs generated from WT or AhR−/− bone marrow,nearly equivalent inhibition
same,Foxp3 mean fluorescence intensity of splenic Tregs,Thy1.2+CD4+ T cells,higher mean fluorescence intensity
same,Tregs in the spleen of newly activated T cells compared to RA-DCs or DMF-DCs,Thy1.2+CD4+ T cells,two times more Tregs
same,"T cell expansion, less than controls","Thy1.2+CD4+ T cells; spleen, mesenteric and distal lymph nodes",more than 2 fold
